What was measured:
[1] = set-up: method as in PMID 18058792; conditions: rats, intravenous administration of racemic hesperetin; cited from earlier work
[2] = set-up: method as in PMID 28747329, PMID 26861391, PMID 30669635; conditions: humans, oral; cited from earlier work
[3] = cited from earlier work
[4] = First phase: relative urinary hesperidin excretion in 24 h urine after 500 mL orange juice with 345 mg hesperidin; type: in vivo, human; conditions: for Relative urinary hesperidin excretion, low excretors: N=3, mean ± SD
Description: The study consisted of two phases. In the first phase, 30 volunteers consumed 500 mL of orange juice (OJ) with 345 mg of hesperidin [9], and the levels of hesperidin excreted in urine were determined. The OJ used in the first phase of the study was the hesperidin OJ used in previous studies conducted by our group. The objective of this first phase of the study was to select volunteers with intermediate hesperidin metabolite levels excreted in urine to reduce the variability in the results in the second phase of the study.
For the first phase of the study—after at least 8 h of fasting—the participants’ urine was collected before the intake of 500 mL of OJ (basal urine) and after the intake of the OJ for 24 h, accumulated in a single volume urine (Figure 1). Urine samples were homogenized and centrifuged at 1900 g for 10 min at 4 °C, and the supernatant was collected and subdivided into aliquots which were stored at −80 °C until analysis.
Relative urinary hesperidin excretion values (% of hesperidin ingested) obtained in the first phase of the study were used to select the participants for the second phase of the study. It was calculated by the ratio between the sum of hesperidin metabolites and the amount of hesperidin consumed by the participants (345 mg). With these values, 18 volunteers with intermediate relative urinary hesperidin excretion values were selected for the second phase.
To obtain the main and secondary outcomes, the urinary levels of hesperidin metabolites and catabolites at baseline—before consuming the hesperidin supplement—and up to 24 h after consuming the hesperidin supplement in four urine fractions (0–3 h; 3–6 h; 6–8 h; 8–24 h) were determined. In addition, the serum levels of hesperidin metabolites and catabolites at baseline and at 2 h, 3 h, 4 h, 5 h, 6 h, 7 h, 8 h and 24 h after consuming the hesperidin supplement were quantified. To obtain the relative urinary hesperidin excretion in the first phase of the study, the urinary levels of hesperidin metabolites before consuming the OJ and in the 24 h urine after consuming the hesperidin supplement were determined.
Hesperetin and related metabolites were determined in urine and serum samples by liquid chromatography coupled to triple quadrupole mass spectrometry (LC-QqQ) using a UHPLC 1290 Infinity II Series coupled to a QqQ/MS 6490 Series (Agilent Technologies, Palo Alto, CA, USA) and an ACQUITY UPLC BEH C18 (100 × 2.1 mm; 1.8 µm) column (Waters, Milford, MA, USA). Mobile phase A was 100% water with 0.5% acetic acid and 10 mM ammonium acetate, and mobile phase B was 100% methanol. The column temperature was set at 45 °C and the injection volume was 5 µL. The triple quadrupole operated in negative electrospray ionization mode (ESI-). The source conditions were set at 25 psi for the nebulizer gas, 240 °C for the gas temperature, 17 L/min for the gas flow, 250 °C for the sheath gas temperature, 12 L/min for the sheath gas flow, 3500 V for the capillary voltage and 0 V for the nozzle voltage. The standards used for quantification purposes were: Hesperetin and Hesperidin (Extrasynthese, Genay, France); Hesperetin 7-O-beta-D-glucuronide, Hesperetin 3-O-beta-D-glucuronide and Hesperetin 7,3′-di-O-beta-D-glucuronide (Toronto Research Chemicals; North York, ON, Canada); Hesperitin 7-O-sulfate (Santa Cruz Biotechnology, Dallas, TX, USA). Hesperitin-d3 and Diosmetin 7-O-β-D-Glucuronide-d3 (Toronto Research Chemicals; North York, ON, Canada) were used as internal standards. […]

SMILES | AUC of R-diastereoisomer compared to S-diastereoisomer [1] [fold] | Share of ingested hesperidin that reaches the large intestine [2] [%] | Solubility [3] | Water solubility [3] | Relative urinary hesperidin excretion, low excretors [4] [%] | Relative urinary hesperidin excretion, low excretors ([4]; listed as Hesperidin) [%] | Relative urinary hesperidin excretion, high excretors ([4]; N=4, mean ± SD) [%] | Relative urinary hesperidin excretion, intermediate excretors ([4]; N=21, mean ± SD) [%] | Mean relative urinary hesperidin excretion determined as hesperetin or hesperetin conjugates in urine ([4]; all participants N=28, mean ± SD) [%]
COc1ccc([C@H]2CC(=O)c3c(O)cc(O)cc3O2)cc1O [R-diastereoisomer, hesperetin] | 3.2 |  |  |  |  |  |  |  | 
COc1ccc([C@@H]2CC(=O)c3c(O)cc(O[C@@H]4O[C@H](CO[C@@H]5O[C@@H](C)[C@H](O)[C@@H](O)[C@H]5O)[C@@H](O)[C@H](O)[C@H]4O)cc3O2)cc1O [hesperidin, hesperetin-7-O-rutinoside] |  | 70 | low | poor | 0.74 ± 0.11 | 0.743 ± 0.112 | 6.06 ± 1.46 | 2.31 ± 1.01 | 2.67 ± 1.79

Source: article PMC9231284, “Hesperidin Bioavailability Is Increased by the Presence of 2S-Diastereoisomer and Micronization—A Randomized, Crossover and Double-Blind Clinical Trial” (Nutrients, 2022)
